The source of these data is US6566047B1, “Method for identifying neurite-growth promoting agents” (The Regents of the University of Colorado, priority 1998, dated 2003).

Experiment [1] has as its system MAT-Lu cells. The experiment is described as follows: Pseudopod morphometry (pseudopod length assay), MAT-Lu cells. Format: cell-based, rat. On the procedure: Pseudopod Morphometry. To study the effects of various agents on pseudopods on a short-term basis, we measured pseudopod lengths. Cells plated in 35-mm diameter dishes at low density (1×10^4 per dish) were incubated overnight, tie medium was changed, and the experiments were run four hours later. First, cultures were shifted to serum-free medium, which was replaced one hour later by serum-free medium with or without the various agents (thrombin, AA or HETEs). Care was taken to avoid heat and light inactivation of the eicosanoids. Culture dishes were placed on a Zeiss inverted microscope equipped with a heated stage and viewed with a 16×phase contrast objective lens. Randomly selected fields of the cultures, containing generally about 20 cells each, were recorded, digitized and stored in the computer at the onset of the experiment and at different times thereafter.
In some cases, individual cells were monitored over different periods of time immediately after introduction of the reagent, either by mixing it into the medium or by applying it locally to one end of the cell. Local application was done with a “puffer” system that expels microliter amounts of the desired solution from a micromanipulator-controlled micropipette tip. Cell morphology was recorded, and the captured images were analyzed with a Power Macintosh computer using NIH Image. Cell process length was measured from the center of the nucleus to the end of the process. Characterization of the frequencies of pseudopod lengths, at a fixed time for each of a sequence of concentrations of reagent, utilized a gamma regression model with an inverse quadratic linear predictor (McCullagh and Nelder, Generalized Linear Models 2d ed., pp. 291-292 (Chapman & Hall, 1989), separately fit to each concentration data set. Although no formal goodness-of-fit tests were carried out, in virtually every case there was good visual representation of the pattern of response (see FIG. 14). Most data, however, are shown as whisker-box plots, where the center point represents the 50%, the ends of the box the […] and 75%, and the “whiskers” the 5% and 95% quantiles (e.g., FIG. 11). Statistical comparisons of pseudopod lengths for different treatments were done by standard non-parametric techniques (Wilcoxon Rank Sum or Kruskal-Wallis Tests), as judged appropriate. Polynomial curve fittings were done by standard least-squares techniques. Statistical analyses and graphing were done with the use of SAS procedures: Reg, Phreg, Nparlway and Plot (SAS institute Inc., Cary, N.C.).

Experiment [2] relates to 12-Lox. In words: Eicosanoid (HETE) generation in GCPs. It is filed as biochemical, rat. On the procedure: Eicosanoid Assays. Eicosanoid production in GCPs was measured by metabolic labelling from ^14C-AA or ^14C-AA-PC or by mass spectrometric detection. […] To measure Lox activity directly, without PLA2 involvement, ^3H-AA was the substrate of choice. Reactions were stopped by the addition of chloroform/methanol as for the phospholipase assays. Reaction products were extracted as described by Birkle et al., Neuromethods, vol. 7, pp.227-244 (Humana Press, N.J. 1988), spotted on pre-activated si gel 60 TLC plates, and the plates developed in the upper phase of ethyl acetate/isooctane/acetic acid/water (100:60:20:100). AA and HETEs were identified by co-migration with standards. Appropriate bands were counted by liquid scintillation spectrometry.
For mass-spectrometric (MS) identification of HETEs, two different strategies were pursued:
(1) the appropriate bands from non-labelled samples (PC substrate) were scraped from the TLC plate into ether/methanol (9:1) and stored under N2 at −20° C. Authentic 12(S)-HETE, run alongside in the same manner, was used as a standard. Just prior to analysis, samples were passed over an SPE filter to eliminate silica particles, dried under argon, resuspended in 500 μl ethanol, and injected (at 3 μl/min) into a Finnigan LCQ quadrupole ion trap mass spectrometer (Finnigan MAT, San Jose, Calif.) equipped with an electrospray ionization source. All spectra were acquired at a capillary temperature of 80° C., and ion guide voltages were tuned to maximize the abundance of the deprotonated ion species [M-H]^− in negative mode. In order to generate a spectrum, typically 100 single scans were averaged.
(2) For the other strategy (liquid chromatography/tandem MS, LC/MS^2), the reaction substrate consisted of 3.5 μM AA, with the addition of 3.5 μM deuterated AA (AA-D8) plus 1 μCi ^3H-AA to track reaction products by mass and radioactivity, respectively. Reactions were stopped with ice-cold ethanol, the mixtures kept overnight at −20° C. under N2, and the proteins spun out The supernatants were diluted with H2O and loaded onto 1-ml C18 Sep-Pak columns (Varian). After washing with H2O, eicosanoid was eluted with 2 ml methanol. These samples were resolved by reverse-phase HPLC, and the eluted fractions analyzed by tandem MS on-line (MacMillan and Murphy, 1995). Collision-induced decomposition of HETE isomers produced characteristic fragments that were identified at the second MS stage.

For experiment [3], the system named is MAT-Lu cells. The experiment is described as follows: Boyden chamber motility assay, MAT-Lu cells. It is filed as cell-based, rat. The conditions noted are these: for Mat-Lu cells crossing filter in % of control +/− SEM: 4 hr, thrombin 200 nM, CDC 126 nM. On the procedure:
Boyden Chamber Motility Assays. Disposable transwells (Coming Costar, Cambridge, Mass.) of 6.5 mm diameter and 8 μm pore size were coated with 5 μg/ml laminin on both sides. The membranes were washed twice with Hank's balanced salt solution (HBSS) and then pre-incubated with growth medium containing 10% fetal bovine serum. Trypsinized cells (5×10^4) were plated into the upper well. After 1 hour the upper chamber was washed twice with HBSS, filled with serum-free medium and moved to a new lower chamber, also filled with serum-free medium, with or without thrombin and/or 0.75 nM insulin-like growth factor-1 (IGF-1). After incubation for 4 hrs, cells on the membrane were fixed and stained with a Diff-Quick kit (Baxter Scientific Products). Cells on the upper side were scraped off, the membranes were removed, mounted onto microscope slides and analyzed. Each filter was scanned twice at right angles under the light microscope with a 16×phase contrast objective lens. A continuous series of 20 frames for each filter was digitized using a high-resolution CCD camera (Kodak) and stored in a Power Macintosh computer. The two most peripheral pairs of frames from each scan were deleted so that 12 frames were analyzed for each filter. Cells that had crossed the membrane were counted and tabulated. The sum of the cells counted in the twelve frames was an individual data point.

The subject of experiment [4] is 12-LOX. The conditions noted are these: Cho et al., 1991; cited from earlier work.
A further experiment relates to protein kinase C (PKC). The experiment is described as follows: MARCKS phosphorylation by PKC in isolated GCPs. Format: biochemical, rat. The conditions noted are these: isolated growth cones. An excerpt: FIG. 7A. Thrombin stimulates MARCKS phosphorylation in a 12-LOX-dependent manner. FIG. 7B. 12(S)-HETE stimulates MARCKS phosphorylation by PKC in isolated GCPs. […] Polypeptides were resolved by SDS-PAGE. MARCKS phosphorylation was quantified by phosphorimaging.

Experiment [5] relates to growth cones in cultures of rat cerebral cortex. In words: Growth cone collapse assay in cortical neuron culture. It is filed as cell-based. On the procedure:
Neuron Culture. Cerebral cortices were dissected from embryonic day 18 Sprague-Dawley rats, cut into explants of less than 1 mm^3 and cultured on either poly-D-lysine-coated coverglass (Assistent) or poly-D-lvsine-coated tissue culture plastic. After 24 hours in B27 neurobasal medium (NB) supplemented with 10% fetal bovine serum, cultures were switched to serum-free B27/NB. The cultures were incubated at 37° C. in 5% CO2 in air. Sprouting neurons were observed readily on day 1. On day 2 or 3, long neurites were present, and the cultures were used for collapse experiments.
Actin Staining. After experimentation, cultures were fixed by slow infusion of fixative (4% paraformaldehyde in 0.1 M phosphate buffer, pH 7.4) into the culture dishes over 10 min (Pfenninger and Maylié-Pfenninger, J. Cell Biol. 89:53-546 (1981)). Thereafter, the fixative was removed by rinsing three times with phosphate-buffered saline (PBS) containing 1 mM glycine. Cultures were then blocked with PBS/1% bovine serum albumin (BSA) and permeabilized by incubation in 0.02% Triton X-100 for 5 min. After three washes in PBS/BSA, cultures were incubated with Texas-Red-conjugated phalloidin for 30 min. Unbound phalloidin was washed away by two PBS rinses, after which the coverglasses were mounted in Slow-Fade Light on microscope slides. Images were recorded on 35 mm film using a Zeiss Axiophot fluorescence microscope equipped with epiillumination.
Growth Cone Collapse Assay. Prior to repellent factor treatment, some of the day 2-3 explant cultures were pre-incubated (at 37° C.) with inhibitor or vehicle control (dimethylsulfoxide or ethanol) for 30-60 min. Cultures were then challenged with a repellent factor or vehicle control for 1-30 min. In some experiments, live cultures were photographed with a Zeiss IM 35 inverted photo microscope equipped with a stage heater, while in others cultures were fixed (as above) after 7 minutes of repellent factor treatment. Growth cone collapse was assessed quantitatively in aldehyde-fixed cultures by grading the degree of collapse in a large number of randomly selected growth cones.

Another experiment concerns the target protein kinase C. The note with it: Kobayashi et al. 1989; cited from earlier work.

“Also recorded” adds a separate entry of the source.

What is called IC50 is the concentration needed to halve the response being measured.

As to `N#CC(=Cc1ccc(O)c(O)c1)C(=O)OCC=Cc1ccccc1` [CDC, cinnamyl-3,4-dihydroxy-α-cyanocinnamate], in the experiment on MAT-Lu cells [1] (15 min pretreatment, indomethacin 10 ηm, NDGA 25 μM, CDC 63 and 126 nM), the “effect of inhibitor pretreatment on AA-induced pseudopod shortening” value was “blocked the AA effect completely; also recorded: reversed the AA effect; also recorded: reversed to control levels”. Besides, in the experiment on MAT-Lu cells [1] (typically 15 min exposure), the “effect of agent alone on pseudopod length” value was “seemed to cause pseudopod elongation”. Besides, the “effect of inhibitor on thrombin-stimulated HETE production from AA” value in the experiment with 12-Lox [2] (3H-AA substrate) is “strongly inhibited”. Besides, the “effect on thrombin-stimulated HETE levels” value with 12-Lox [2] (14C-AA-PC substrate, CDC 0.156 μM) is listed as “reduces thrombin-stimulated HETE levels to below control”. Besides, the “effect of LOX inhibitor on thrombin inhibition of migration” value in the experiment on MAT-Lu cells [3] (CDC with thrombin, Table 1) is on record as “reverses the effect of thrombin”. Also, the “Mat-Lu cells crossing filter in % of control +/− SEM” value in the experiment on MAT-Lu cells [3] (Control column (no IGF-1)) is 97.5 +/− 11.0 % of control; with MAT-Lu cells [3] (IGF-1 (0.75 nM)), 118 +/− 10.4 % of control. For the same molecule, the IC50 in the experiment with 12-LOX [4] is 63 nM. Further, the “effect of inhibitor on thrombin-stimulated MARCKS and GAP43 phosphorylation” value with protein kinase C (PKC) is given as “blocks phosphorylation”. Besides, the “effect of CDC pretreatment on 12(S)-HETE-induced collapse” value in experiment [5] (12(S)-HETE 10^−7M) is “is not affected”. The “effect of inhibitor pretreatment on thrombin- or TRAP-induced growth cone collapse” value in experiment [5] (CDC 10 μM, indomethacin 25 μM, pretreatment 30-45 min) was “inhibits the thrombin effect on growth cones; also recorded: partially inhibits collapse; also recorded: almost complete inhibition of this effect”.

As for calphostin C, in the experiment on MAT-Lu cells [1] (12(S)-HETE 10^−10M, calphostin 50 and 100 nM, 15 min pretreatment), the “effect of PKC inhibitor pretreatment on 12(S)-HETE-triggered pseudopod withdrawal” value was “blocks pseudopod retraction; also recorded: completely inhibited pseudopod withdrawal”. Moreover, the IC50 on protein kinase C is 50 nM. In addition, the “effect of inhibitor on thrombin-stimulated MARCKS and GAP43 phosphorylation” value with protein kinase C (PKC) is “blocks phosphorylation”.
